Measurements reported in US10959432B2, “Microbiocidal oxadiazole derivatives” (Syngenta Participations AG, priority 2016, dated 2021).

Assays:
[1] = test system: Glomerella laqenarium (Colletotrichum lagenarium); assay: Fungicidal activity against Glomerella lagenarium (Colletotrichum lagenarium) liquid culture / cucumber / preventative (anthracnose); assay type: cell-based; details: Colletotrichum orbiculare; 20 ppm in the applied formulation; liquid culture in PDB, 24° C., 3 to 4 days after application; read-out: disease control compared to untreated control (inhibition of growth measured photometrically)
Description: Mycelia fragments or conidia suspensions of a fungus prepared either freshly from liquid cultures of the fungus or from cryogenic storage, are directly mixed into nutrient broth. DMSO solutions of the test compound (max. 10 mg/ml) are diluted with 0.025% Tween20 by a factor of 50 and 10 μl of this solution is pipetted into a microtiter plate (96-well format). The nutrient broth containing the fungal spores/mycelia fragments is then added to give an end concentration of the tested compound. The test plates are incubated in the dark at 24° C. and 96% relative humidity. The inhibition of fungal growth is determined photometrically after 2 to 7 days, depending on the pathosystem, and percent antifungal activity relative to the untreated check is calculated.
Example 4: Fungicidal Activity Against Glomerella laqenarium (Colletotrichum lagenarium) Liquid Culture/Cucumber/Preventative (Anthracnose)
Conidia of the fungus from cryogenic storage are directly mixed into nutrient broth (PDB—potato dextrose broth). After placing a (DMSO) solution of test compound into a microtiter plate (96-well format), the nutrient broth containing the fungal spores is added. The test plates are incubated at 24° C. and the inhibition of growth is measured photometrically 3 to 4 days after application.
The following compounds at 20 ppm in the applied formulation give at least 80% disease control in this test when compared to untreated control under the same conditions, which show extensive disease development.

[2] = test system: Puccinia recondita f. sp. tritici; assay: Fungicidal activity against Puccinia recondita f. sp. tritici / wheat / leaf disc curative (brown rust); assay type: in vivo; details: foliar, 200 ppm in the applied formulation, wheat leaf segments cv. Kanzler, curative (applied 1 day after inoculation), assessed 6 to 8 days after application, read-out: disease control compared to untreated control leaf disks
Description: (§1) Leaf disks or leaf segments of various plant species are cut from plants grown in a greenhouse. The cut leaf disks or segments are placed in multiwell plates (24-well format) onto water agar. The leaf disks are sprayed with a test solution before (preventative) or after (curative) inoculation. Compounds to be tested are prepared as DMSO solutions (max. 10 mg/ml) which are diluted to the appropriate concentration with 0.025% Tween20 just before spraying. The inoculated leaf disks or segments are incubated under defined conditions (temperature, relative humidity, light, etc.) according to the respective test system. A single evaluation of disease level is carried out 3 to 14 days after inoculation, depending on the pathosystem. Percent disease control relative to the untreated check leaf disks or segments is then calculated. General Examples of Liquid Culture Tests in Well Plates:
Example 2: Fungicidal Activity Against Puccinia recondita f. sp. Tritici/Wheat/Leaf Disc Curative (Brown Rust)
Wheat leaf segments cv. Kanzler are placed on agar in multiwell plates (24-well format). The leaf segments are then inoculated with a spore suspension of the fungus. Plates were stored in darkness at 19° C. and 75% relative humidity. The formulated test compound diluted in water was applied 1 day after inoculation. The leaf segments were incubated at 19° C. and 75% relative humidity under a light regime of 12 hours light/12 hours darkness in a climate cabinet and the activity of a compound was assessed as percent disease control compared to untreated when an appropriate level of disease damage appears in untreated check leaf segments (6 to 8 days after application).
(§2) The following compounds at 200 ppm in the applied formulation give at least 80% disease control in this test when compared to untreated control leaf disks under the same conditions, which show extensive disease development.

Phakopsora pachyrhizi = assay: Fungicidal activity against Phakopsora pachyrhizi / soybean / leaf disc preventative (Asian soybean rust); assay type: in vivo; details: foliar, 200 ppm in the applied formulation, soybean leaf disks, preventative (inoculated one day after application), assessed 12 to 14 days after application, read-out: disease control compared to untreated control leaf disks
Description: as §1
Example 3: Fungicidal Activity Against Phakopsora pachyrhizi/Soybean/Leaf Disc Preventative (Asian Soybean Rust)
Soybean leaf disks are placed on water agar in multiwell plates (24-well format) and sprayed with the formulated test compound diluted in water. One day after application leaf discs are inoculated by spraying a spore suspension on the lower leaf surface. After an incubation period in a climate cabinet of 24-36 hours in darkness at 20° C. and 75% rh leaf disc are kept at 20° C. with 12 h light/day and 75% rh. The activity of a compound is assessed as percent disease control compared to untreated when an appropriate level of disease damage appears in untreated check leaf disks (12 to 14 days after application).
as §2

[3] = test system: Puccinia recondita f. sp. tritici; assay: Fungicidal activity against Puccinia recondita f. sp. tritici / wheat / leaf disc preventative (brown rust); assay type: in vivo; details: foliar, 200 ppm in the applied formulation, wheat leaf segments cv. Kanzler, preventative (inoculated 1 day after application), assessed 7 to 9 days after application, read-out: disease control compared to untreated control leaf disks
Description: as §1
Example 1: Fungicidal Activity Against Puccinia recondita f. sp. tritici/Wheat/Leaf Disc Preventative (Brown Rust)
Wheat leaf segments cv. Kanzler were placed on agar in multiwell plates (24-well format) and sprayed with the formulated test compound diluted in water. The leaf disks were inoculated with a spore suspension of the fungus 1 day after application. The inoculated leaf segments were incubated at 19C and 75% relative humidity (rh) under a light regime of 12 hours light/12 hours darkness in a climate cabinet and the activity of a compound was assessed as percent disease control compared to untreated when an appropriate level of disease damage appears in untreated check leaf segments (7 to 9 days after application).
as §2

CC(O)CNC(=O)c1ccc(-c2noc(C(F)(F)F)n2)cc1 (centres unmarked) [Compound 3a.10, N-(2-hydroxypropyl)-4-[5-(trifluoromethyl)-1,2,4-oxadiazol-3-yl]benzamide]
≥ 80%: inhibition at 20 ppm [1] | pest or weed control at 200 ppm [2] | pest or weed control at 200 ppm (Phakopsora pachyrhizi) | pest or weed control at 200 ppm [3]

CCCN(C)C(=O)c1ccc(-c2noc(C(F)(F)F)n2)cc1F [Compound 3b.34, 2-fluoro-N-methyl-N-propyl-4-[5-(trifluoromethyl)-1,2,4-oxadiazol-3-yl]benzamide]
≥ 80%: inhibition at 20 ppm [1] | pest or weed control at 200 ppm [2] | pest or weed control at 200 ppm (Phakopsora pachyrhizi) | pest or weed control at 200 ppm [3]

CC(C)(O)CNC(=O)c1ccc(-c2noc(C(F)(F)F)n2)cc1 [Compound 3a.27, N-(2-hydroxy-2-methyl-propyl)-4-[5-(trifluoromethyl)-1,2,4-oxadiazol-3-yl]benzamide]
≥ 80%: inhibition at 20 ppm [1] | pest or weed control at 200 ppm [2] | pest or weed control at 200 ppm (Phakopsora pachyrhizi) | pest or weed control at 200 ppm [3]

CCC(C)NC(=O)c1ccc(-c2noc(C(F)(F)F)n2)cc1F (centres unmarked) [Compound 3b.10, 2-fluoro-N-sec-butyl-4-[5-(trifluoromethyl)-1,2,4-oxadiazol-3-yl]benzamide]
≥ 80%: inhibition at 20 ppm [1] | pest or weed control at 200 ppm [2] | pest or weed control at 200 ppm (Phakopsora pachyrhizi) | pest or weed control at 200 ppm [3]

C=CCN(CC)C(=O)c1ccc(-c2noc(C(F)(F)F)n2)cc1 [Compound 3a.28, N-allyl-N-ethyl-4-[5-(trifluoromethyl)-1,2,4-oxadiazol-3-yl]benzamide]
≥ 80%: inhibition at 20 ppm [1] | pest or weed control at 200 ppm [2] | pest or weed control at 200 ppm (Phakopsora pachyrhizi) | pest or weed control at 200 ppm [3]

O=C(Nc1nccnn1)c1ccc(-c2noc(C(F)(F)F)n2)cc1 [Compound 5a.8, N-(1,2,4-triazin-3-yl)-4-[5-(trifluoromethyl)-1,2,4-oxadiazol-3-yl]benzamide]
≥ 80%: inhibition at 20 ppm [1] | pest or weed control at 200 ppm [2] | pest or weed control at 200 ppm (Phakopsora pachyrhizi) | pest or weed control at 200 ppm [3]

CN(C(=O)c1ccc(-c2noc(C(F)(F)F)n2)cc1)c1ccccn1 [Compound 5a.4, N-methyl-N-(2-pyridyl)-4-[5-(trifluoromethyl)-1,2,4-oxadiazol-3-yl]benzamide]
≥ 80%: inhibition at 20 ppm [1] | pest or weed control at 200 ppm [2] | pest or weed control at 200 ppm (Phakopsora pachyrhizi)

CCCCCCNC(=O)c1ccc(-c2noc(C(F)(F)F)n2)cc1F [Compound 3b.31, 2-fluoro-N-hexyl-4-[5-(trifluoromethyl)-1,2,4-oxadiazol-3-yl]benzamide]
≥ 80%: inhibition at 20 ppm [1] | pest or weed control at 200 ppm [2] | pest or weed control at 200 ppm (Phakopsora pachyrhizi)

O=C(NCCCO)c1ccc(-c2noc(C(F)(F)F)n2)cc1F [Compound 3b.23, 2-fluoro-N-(3-hydroxypropyl)-4-[5-(trifluoromethyl)-1,2,4-oxadiazol-3-yl]benzamide]
≥ 80%: inhibition at 20 ppm [1] | pest or weed control at 200 ppm [2] | pest or weed control at 200 ppm (Phakopsora pachyrhizi)

CC(C)C(CO)NC(=O)c1ccc(-c2noc(C(F)(F)F)n2)cc1F (centres unmarked) [Compound 3b.18, 2-fluoro-N-[1-(hydroxymethyl)-2-methyl-propyl]-4-[5-(trifluoromethyl)-1,2,4-oxadiazol-3-yl]benzamide]
≥ 80%: inhibition at 20 ppm [1] | pest or weed control at 200 ppm [2]

CCOC(=O)CC(C)NC(=O)c1ccc(-c2noc(C(F)(F)F)n2)cc1F (centres unmarked) [Compound 3b.28, ethyl 3-[[2-fluoro-4-[5-(trifluoromethyl)-1,2,4-oxadiazol-3-yl]benzoyl]amino]butanoate]
≥ 80%: inhibition at 20 ppm [1] | pest or weed control at 200 ppm [2] | pest or weed control at 200 ppm [3]

CC(C)C(CO)NC(=O)c1ccc(-c2noc(C(F)(F)F)n2)cc1 (centres unmarked) [Compound 3a.18, N-[1-(hydroxymethyl)-2-methyl-propyl]-4-[5-(trifluoromethyl)-1,2,4-oxadiazol-3-yl]benzamide]
≥ 80%: inhibition at 20 ppm [1] | pest or weed control at 200 ppm [2] | pest or weed control at 200 ppm (Phakopsora pachyrhizi)
